The source of these data is patent publication US8426429B2, “2-amino-quinazoline derivatives useful as inhibitors of β-secretase (BACE)” (Jansssen Pharmaceutica N.V., priority 2004, dated 2013).

In the assay the target is T1, β-secretase (BACE) (Homo sapiens, UniProt P56817).
T1 construct: purchased Panvera
As to the kind of experiment: BACE FS1 % Inhibition Assay. In kind it is biochemical. The essentials: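 Percent inhibition per compound concentration was referenced to vehicle-treated enzyme and no-enzyme wells. Enzyme at a 4 μg/mL working stock plus compound was mixed for 20 min at room temperature before the FS1 substrate (300 μg/mL working stock) was added for a 1 h room-temperature reaction.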

T1 sequence (P56817 46-501): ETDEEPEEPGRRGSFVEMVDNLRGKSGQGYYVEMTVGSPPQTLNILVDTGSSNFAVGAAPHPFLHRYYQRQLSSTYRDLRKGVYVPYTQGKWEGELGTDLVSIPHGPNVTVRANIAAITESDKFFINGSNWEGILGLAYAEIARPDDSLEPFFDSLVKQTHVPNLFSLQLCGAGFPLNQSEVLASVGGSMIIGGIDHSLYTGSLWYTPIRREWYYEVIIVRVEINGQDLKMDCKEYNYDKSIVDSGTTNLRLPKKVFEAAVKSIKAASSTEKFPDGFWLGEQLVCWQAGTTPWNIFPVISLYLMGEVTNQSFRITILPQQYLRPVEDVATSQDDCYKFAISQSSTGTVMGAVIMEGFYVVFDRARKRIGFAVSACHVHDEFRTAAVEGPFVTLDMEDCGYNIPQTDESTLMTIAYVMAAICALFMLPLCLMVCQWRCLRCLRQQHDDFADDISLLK

Regarding `CC(C)[C@@H](CNC(=O)C12CC3CC(CC(C3)C1)C2)N1Cc2cc(Oc3ccccc3)ccc2N=C1N` [Compound 553], the “% Inhibition (FS)” value is, setting by setting: (0.3 μM test compound) less than 30%; (1 μM test compound) less than 30%; (3 μM test compound) 49%.

As for `COc1ccc(Sc2ccc3c(c2)CN(Cc2cccc(C(=O)N(C)C4CCCCC4)c2)C(N)=N3)cc1OC` [Compound 411], the “% Inhibition (FS)” value is on record as less than 30% (0.3 μM test compound), less than 30% (1 μM test compound) and 55% (3 μM test compound).

On to `CC(C)C(CC(=O)NC1CCCCC1)N1Cc2cc(Oc3ccccc3)ccc2N=C1N` (stereo not shown) [Compound 401], for which the “% Inhibition (FS)” value reads like this: (0.3 μM test compound) less than 30%; (1 μM test compound) less than 30%; (3 μM test compound) 52%.

Take `CCCCCCCCC(CCC(=O)NC1CCCCCC1)N1Cc2cc(Oc3ccccc3)ccc2N=C1N` (stereo not shown) [Compound 208]: the “% Inhibition (FS)” value (0.3 μM test compound) is less than 30%, the “% Inhibition (FS)” value (1 μM test compound) is listed as less than 30% and the “% Inhibition (FS)” value (3 μM test compound) is reported as 67%.

As to `CN(C(=O)c1ccc2c(c1)C(N1Cc3cc(Oc4ccccc4)ccc3N=C1N)c1ccccc1-2)C1CCCCC1` (stereo not shown) [Compound 118], the “% Inhibition (FS)” value came to 48% (3 μM test compound, 3 µM) and 91% (10 μM test compound, 10 µM).

Turning to `COc1ccccc1-c1ccc2c(c1)CN([C@@H](CCC(=O)N(C)Cc1csc(-c3ccccc3)n1)C1CCCCC1)C(N)=N2` [Compound 716], the “% Inhibition (FS)” value (0.3 μM compound, FS1 substrate) is on record as less than 30%; the “% Inhibition (FS)” value (1 μM compound, FS1 substrate) was less than 30%; the “% Inhibition (FS)” value (3 μM compound, FS1 substrate) is 72%.

As to `CC(C)c1ccc(Sc2ccc3c(c2)CN(Cc2cccc(C(=O)N(C)C4CCCCC4)c2)C(N)=N3)cc1` [Compound 407], the “% Inhibition (FS)” value is less than 30% (0.3 μM test compound), less than 30% (1 μM test compound) and 48% (3 μM test compound).

As for `CCCC(CCCC(=O)N(C)C1CCN(C)CC1)N1Cc2cc(Oc3ccccc3)ccc2N=C1N` (stereo not shown) [Compound 106], the “% Inhibition (FS)” value is listed as 103% (3 μM test compound) and 114% (10 μM test compound).

Turning to `NC1=Nc2ccc(-c3cnc4ccccc4c3)cc2CN1CCNC(=O)C12CC3CC(CC(C3)C1)C2` [Compound 672], the “% Inhibition (FS)” value (0.3 μM compound, FS1 substrate) is on record as less than 30%; the “% Inhibition (FS)” value (1 μM compound, FS1 substrate) is less than 30%; the “% Inhibition (FS)” value (3 μM compound, FS1 substrate) was less than 30%.

For `COC(=O)[C@H](COCc1ccccc1)N(C)C(=O)CC[C@@H](C1CCOCC1)N1Cc2cc(Oc3ccccc3)ccc2N=C1N` [Compound 786], the “% Inhibition (FS)” value was 97% (0.3 μM compound, FS1 substrate); 105% (1 μM compound, FS1 substrate); 114% (3 μM compound, FS1 substrate).

Turning to `COc1ccccc1-c1ccc2c(c1)CN([C@@H](CCC(=O)N(C)Cc1cc(C)no1)C1CCCCC1)C(N)=N2` [Compound 718], the “% Inhibition (FS)” value (0.3 μM compound, FS1 substrate) is less than 30% and the “% Inhibition (FS)” value (1 μM compound, FS1 substrate) is recorded as 30%.

In the case of `NC1=Nc2ccc(Oc3ccccc3)cc2CN1C1CCCCN(C(=O)C23CC4CC(CC(C4)C2)C3)C1` (stereo not shown) [Compound 550], the “% Inhibition (FS)” value by setting is: (0.3 μM test compound) less than 30%; (1 μM test compound) less than 30%; (3 μM test compound) 67%.

For the molecule `CN(C(=O)c1cccc(CN2Cc3cc(Nc4ccc(C5CCCCC5)cc4)ccc3N=C2N)c1)C1CCCCC1` [Compound 437], the “% Inhibition (FS)” value was less than 30% (0.3 μM test compound), less than 30% (1 μM test compound) and 38% (3 μM test compound).

`CC(C)CCC(=O)NCCN1Cc2cc(-c3cnc4ccccc4c3)ccc2N=C1N` [Compound 675]: the “% Inhibition (FS)” value is 35% (0.3 μM compound, FS1 substrate); less than 30% (1 μM compound, FS1 substrate); less than 30% (3 μM compound, FS1 substrate).

On to `CCCCC(CC)CN(CC(CC)CCCC)C(=O)c1cccc(CN2Cc3cc(Oc4ccccc4)ccc3N=C2N)c1` (stereo not shown) [Compound 198], for which the “% Inhibition (FS)” value is listed as less than 30% (0.3 μM test compound), less than 30% (1 μM test compound) and less than 30% (3 μM test compound).

On to `CC(C)CCC(=O)NCCN1Cc2cc(-c3ccc4ccccc4c3)ccc2N=C1N` [Compound 668], for which the “% Inhibition (FS)” value is listed as less than 30% (0.3 μM compound, FS1 substrate); less than 30% (1 μM compound, FS1 substrate); less than 30% (3 μM compound, FS1 substrate).

Consider `NC1=Nc2ccc(-c3ccc4ccccc4c3)cc2CN1CCNC(=O)CCC(F)(F)F` [Compound 686], for which the “% Inhibition (FS)” value reads like this: (0.3 μM compound, FS1 substrate) less than 30%; (1 μM compound, FS1 substrate) 73%; (3 μM compound, FS1 substrate) 80%.

Consider `CN(CCN1Cc2cc(Oc3ccccc3)ccc2N=C1N)C1CCCCC1` [Compound 429], for which the “% Inhibition (FS)” value by setting is: (0.3 μM test compound) less than 30%; (1 μM test compound) less than 30%; (3 μM test compound) less than 30%.

For the molecule `CN(C(=O)c1ncoc1C(Cc1ccccc1)N1Cc2cc(Oc3ccccc3)ccc2N=C1N)C1CCCCC1` (stereo not shown) [Compound 559], the “% Inhibition (FS)” value runs as follows: (0.3 μM test compound) less than 30%; (1 μM test compound) less than 30%; (3 μM test compound) less than 30%.

Turning to `CC(=O)c1cccc(-c2ccc3c(c2)CN(CCNC(=O)c2cc(C)oc2C)C(N)=N3)c1` [Compound 588], the “% Inhibition (FS)” value reads like this: (0.3 μM test compound) less than 30%; (1 μM test compound) less than 30%; (3 μM test compound) less than 30%.

As for `CC(C)COc1ccc2c(c1)CN(Cc1cccc(C(=O)N(C)C3CCCCC3)c1)C(N)=N2` [Compound 518], the “% Inhibition (FS)” value was less than 30% (0.3 μM test compound), less than 30% (1 μM test compound) and less than 30% (3 μM test compound).

Turning to `CN(C(=O)c1cccc(CN2Cc3cc(Oc4ccc5c(c4)CCCC5)ccc3N=C2N)c1)C1CCCCC1` [Compound 233], the “% Inhibition (FS)” value was less than 30% (0.3 μM test compound), 32% (1 μM test compound) and 36% (3 μM test compound).

As for `CN(C(=O)CCC(C1CCCCC1)N1Cc2cc(Oc3ccccc3)ccc2N=C1N)C1CCC(O)CC1` (stereo not shown) [Compound 639], the “% Inhibition (FS)” value (0.3 μM test compound) is recorded as less than 30%, the “% Inhibition (FS)” value (1 μM test compound) is less than 30% and the “% Inhibition (FS)” value (3 μM test compound) is given as 48%.

Consider `CN(C(=O)CC[C@@H](C1CCOCC1)N1Cc2cc(Oc3ccccc3)ccc2N=C1N)[C@H]1CC[C@@H](C(=O)O)CC1` [Compound 745, (S)-Enantiomer of 4-cis-{[4-(2-Amino-6-phenoxy-4H-quinazolin-3-yl)-4-(tetrahydro-pyran-4-yl)-butyryl]-methyl-amino}-cyclohexanecarboxylic acid], for which the “% Inhibition (FS)” value (0.3 μM compound, FS1 substrate, 0.3 µM) worked out at 115% and the “% Inhibition (FS)” value (1 μM compound, FS1 substrate, 1 µM) turned out to be 114%. The inhibition at 3 µM (3 μM compound, FS1 substrate, read-out: % Inhibition (FS)) is 114%.

In the case of `NC1=Nc2ccc(Oc3ccccc3)cc2CN1CCCNC(=O)C1CC1` [Compound 143], the “% Inhibition (FS)” value by setting is: (3 μM test compound) less than 30%; (10 μM test compound) 32%.

Regarding `CCCC=Cc1ccc2c(c1)CN(CCNC(=O)C1CCCCC1)C(N)=N2` [Compound 577], the “% Inhibition (FS)” value by setting is: (0.3 μM test compound) less than 30%; (1 μM test compound) less than 30%; (3 μM test compound) less than 30%.

`Cc1ccc(Sc2ccc3c(c2)CN(Cc2cccc(C(=O)N(C)C4CCCCC4)c2)C(N)=N3)cc1C` [Compound 408]: the “% Inhibition (FS)” value is on record as less than 30% (0.3 μM test compound), 34% (1 μM test compound) and 95% (3 μM test compound).

Regarding `CN(C(=O)c1cccc(CN2Cc3cc(Oc4ccccc4C4CCCC4)ccc3N=C2N)c1)C1CCCCC1` [Compound 512], the “% Inhibition (FS)” value is recorded as less than 30% (0.3 μM test compound), less than 30% (1 μM test compound) and 51% (3 μM test compound).

`COc1cccc(OC)c1Oc1ccc2c(c1)CN(Cc1cccc(C(=O)N(C)C3CCCCC3)c1)C(N)=N2` [Compound 477]: the “% Inhibition (FS)” value (0.3 μM test compound) is less than 30%, the “% Inhibition (FS)” value (1 μM test compound) is reported as less than 30% and the “% Inhibition (FS)” value (3 μM test compound) was less than 30%.

For the molecule `COc1ccc(Sc2ccc3c(c2)CN(Cc2cccc(C(=O)N(C)C4CCCCC4)c2)C(N)=N3)cc1` [Compound 410], the “% Inhibition (FS)” value is on record as less than 30% (0.3 μM test compound), 39% (1 μM test compound) and 50% (3 μM test compound).

Regarding `CC(=O)N1CCC(C(=O)NCCN2Cc3cc(-c4ccccc4)ccc3N=C2N)CC1` [Compound 702], the “% Inhibition (FS)” value reads like this: (0.3 μM compound, FS1 substrate) less than 30%; (1 μM compound, FS1 substrate) less than 30%; (3 μM compound, FS1 substrate) less than 30%.

For `NC1=Nc2ccc(-c3ccccc3F)cc2CN1CCNC(=O)CCC(F)(F)F` [Compound 680], the “% Inhibition (FS)” value (0.3 μM compound, FS1 substrate) is reported as 42%; the “% Inhibition (FS)” value (1 μM compound, FS1 substrate) amounted to 75%; the “% Inhibition (FS)” value (3 μM compound, FS1 substrate) was determined as 90%.

Regarding `NC1=Nc2ccc(Oc3ccccc3)cc2CN1CC(NC(=O)C1CCCCC1)C1CCCCC1` (stereo not shown) [Compound 637], the “% Inhibition (FS)” value by setting is: (0.3 μM test compound) less than 30%; (1 μM test compound) less than 30%; (3 μM test compound) 73%.

Take `CN1CCC(N(C)C(=O)c2cccc(C(c3ccccc3)N3Cc4cc(Oc5ccccc5)ccc4N=C3N)c2)CC1` (stereo not shown) [Compound 316]: the “% Inhibition (FS)” value was less than 30% (0.3 μM test compound), less than 30% (1 μM test compound) and less than 30% (3 μM test compound).

Regarding `CN(C(=O)c1cccc(CN2Cc3cc(-c4cccc(-c5ccccc5)c4)ccc3N=C2N)c1)C1CCCCC1` [Compound 171], the “% Inhibition (FS)” value was less than 30% (0.3 μM test compound), 31% (1 μM test compound) and 42% (3 μM test compound).

For the molecule `CCCC(CCCC(=O)NC1CCCCC1)N1Cc2cc(Oc3ccccc3)ccc2N=C1N` (stereo not shown) [Compound 91], the “% Inhibition (FS)” value amounted to 68% (3 μM test compound) and 117% (10 μM test compound).

Consider `CN(C(=O)c1cccc(CN2Cc3cc(Oc4ccccc4C(=O)N4CCCC4)ccc3N=C2N)c1)C1CCCCC1` [Compound 483], for which the “% Inhibition (FS)” value reads like this: (0.3 μM test compound) less than 30%; (1 μM test compound) less than 30%; (3 μM test compound) less than 30%.

Consider `NC1=Nc2ccc(-c3ccccc3)cc2CN1CCNC(=O)C1CCC(C(F)(F)F)CC1` (stereo not shown) [Compound 701], for which the “% Inhibition (FS)” value reads like this: (0.3 μM compound, FS1 substrate) less than 30%; (1 μM compound, FS1 substrate) less than 30%; (3 μM compound, FS1 substrate) 54%.

Regarding `CSc1ccccc1-c1ccc2c(c1)CN(CCNC(=O)C1CCCCC1)C(N)=N2` [Compound 540], the “% Inhibition (FS)” value by setting is: (0.3 μM test compound) less than 30%; (1 μM test compound) 30%; (3 μM test compound) 84%.

As a reminder, the inhibition is the change of the read-out against control, counted positive when it falls.
